From ChEMBL document CHEMBL3046034, “Enzyme inhibitors to increase poly-3-hydroxybutyrate production by transgenic tobacco” (2002) come the findings set out here.

Test [1] has as its system Nicotiana tabacum. Nature of the test: Increase of poly-3-hydroxybutyrate production in rCAB8 transgenic Nicotiana tabacum (tobacco) plastids at 0.1 to 10 uM sprayed on five-leaf stage plant once in a week measured after 2 weeks relative to control. The format is functional, organism-based.
The test system of test [2] is Nicotiana tabacum. Nature of the test: Increase of poly-3-hydroxybutyrate production in BC3 transgenic Nicotiana tabacum (tobacco) plastids at 10 uM sprayed on five-leaf stage plant once in a week measured after 2 weeks relative to control. The format is functional, organism-based.
In test [3] the test system is Nicotiana tabacum. Briefly: Increase of poly-3-hydroxybutyrate production in BC3 transgenic Nicotiana tabacum (tobacco) plastids at 1 uM sprayed on five-leaf stage plant once in a week measured after 2 weeks relative to control. The format is functional.
Test [4] concerns Nicotiana tabacum. Nature of the test: Increase of leaf dry weight in BC3 transgenic Nicotiana tabacum (tobacco) at 10 uM sprayed on five leaf stage plant once in a week measured after 1 week. The format is functional, organism-based.
For test [5], the system named is Nicotiana tabacum. Briefly: Increase of PHA synthase level in rCAB8 transgenic Nicotiana tabacum (tobacco) at 50 uM sprayed on five leaf stage plant once in a week measured after 2 weeks by immunoblot analysis. The format is functional, organism-based.
Test [6] deals with Nicotiana tabacum. Nature of the test: Increase of poly-3-hydroxybutyrate production in rCAB8 transgenic Nicotiana tabacum (tobacco) at 50 uM sprayed on five-leaf stage plant once in a week measured after 1 week relative to control. The format is functional.
In test [7] the test system is Nicotiana tabacum. Nature of the test: Increase of poly-3-hydroxybutyrate production in BC3 transgenic Nicotiana tabacum (tobacco) at 10 uM sprayed on five-leaf stage plant once in a week measured after 1 week relative to control. The format is functional.
The test system of test [8] is Nicotiana tabacum. Nature of the test: Increase of PHA synthase level in BC3 transgenic Nicotiana tabacum (tobacco) at 10 uM sprayed on five leaf stage plant once in a week measured after 2 weeks by immunoblot analysis. The test is classed as functional, organism-based.
Test [9] deals with Nicotiana tabacum. Nature of the test: Increase of poly-3-hydroxybutyrate production in rCAB8 transgenic Nicotiana tabacum (tobacco) at 50 uM sprayed on five-leaf stage plant once in a week measured after 2 weeks relative to control. The format is functional.
Test [10] has as its system Nicotiana tabacum. Briefly: Increase of leaf dry weight in rCAB8 transgenic Nicotiana tabacum (tobacco) at 10 to 250 uM sprayed on five leaf stage plant once in a week measured after 2 weeks. The test is classed as functional, organism-based.
Test [11] has as its system Nicotiana tabacum. Nature of the test: Increase of poly-3-hydroxybutyrate production in BC3 transgenic Nicotiana tabacum (tobacco) at 2 to 50 uM sprayed on five-leaf stage plant once in a week measured after 2 weeks relative to control. The test is classed as functional.
Test [12] relates to Nicotiana tabacum. Nature of the test: Increase of leaf dry weight in BC3 transgenic Nicotiana tabacum (tobacco) sprayed on five-leaf stage plant once in a week measured after 2 weeks. The test is classed as functional, organism-based.
Test [13] has as its system Nicotiana tabacum. Nature of the test: Increase of poly-3-hydroxybutyrate production in rCAB8 transgenic Nicotiana tabacum (tobacco) plastids at 50 uM sprayed on five-leaf stage plant once in a week measured after 2 weeks relative to cytosol. The format is functional.
In test [14] the test system is Nicotiana tabacum. Nature of the test: Increase of poly-3-hydroxybutyrate production in BC3 transgenic Nicotiana tabacum (tobacco) plastids at 10 uM sprayed on five-leaf stage plant once in a week measured after 2 weeks relative to cytosol. The test is classed as functional.
The subject of test [15] is Nicotiana tabacum. Nature of the test: Increase of poly-3-hydroxybutyrate production in BC3 transgenic Nicotiana tabacum (tobacco) at 10 uM sprayed on five leaf stage plant once in a week measured after 2 weeks relative to control. The test is classed as functional.

Calls of active or inactive are those of the source. No cut-off for these calls is given here.

For `CC[C@H](C)C(=O)O[C@H]1CCC=C2C=C[C@H](C)[C@H](CC[C@@H]3C[C@@H](O)CC(=O)O3)[C@H]21` [MEVASTATIN], the result in the test with Nicotiana tabacum [1] was Active. Besides, the result in the test on Nicotiana tabacum [2] was inactive. Also, the Activity with Nicotiana tabacum [3] turned out to be 192%.
Turning to `CC(Oc1ccc(Oc2cnc3cc(Cl)ccc3n2)cc1)C(=O)O` (stereo not given) [QUIZALOFOP], the result in the test with Nicotiana tabacum [4], in the test with Nicotiana tabacum [5], with Nicotiana tabacum [8] and in the test with Nicotiana tabacum [10] was Active. The Activity in the test on Nicotiana tabacum [6] is 120%; in the test with Nicotiana tabacum [7] it was 150%; in the test with Nicotiana tabacum [9], 150%; with Nicotiana tabacum [11], 170%; in the test with Nicotiana tabacum [12] it was “Dose-dependent effect”; in the test on Nicotiana tabacum [15], 170%. In addition, the “fold change (FC)” value in the test on Nicotiana tabacum [13] and in the test on Nicotiana tabacum [14] was 2.5 each time.
